From US20240033244A1, “COMPOSITIONS AND METHODS FOR INHIBITING YTHDF1” (SHANGHAI INSTITUTE OF MATERIA MEDICA, CHINESE ACADEMY OF …, priority 2020, published 2024) come the findings set out here.

Molecules are shown by their SMILES.

The target of one assay is T1, YTHDF1 mutant F382A (Homo sapiens, UniProt Q9BYJ9, F382A).
T1 construct: GST (N, cleaved yes); made in house; host or cells: E. coli BL21 (DE3)
Put plainly: FP assay with YTHDF1 mutant F382A. It counts as binding. Here is the method: (§1) The protein YTHDF1 (361-559) (SEQ ID NO: 2) and its mutants (SEQ ID NOs: 4-13) were cloned into pGEx-6P-1 vector (obtained from YouBio Co, Ltd, Catalog NO: VT1258), and the His-YTHDF1 (361-559) (SEQ ID NO: 3) used in AlphaScreen Assay was cloned into modified pET28a vector (obtained from YouBio Co, Ltd, Catalog NO: VT1207). The vectors were transformed into E. coli BL21 (DE3) cells and cultured at 37° C. When OD value reached 0.6˜0.8, 1 mM Isopropyl-β-D-thiogalactopyranoside was added to overexpress the protein at 16° C. overnight. […] Then, the proteins were further purified via cation exchange (HiTrap SP, GE Healthcare) and finally through a Superdex 75 10/300 column (GE Healthcare). At last, the purified YTHDF1(361-559) and the mutants were kept in buffer which contains 20 mM Hepes (pH 7.4) and 200 mM NaCl. For His-YTHDF1 (361-559), the protein was purified via Ni-NTA chromatography (HisTrap FF, GE Healthcare), followed by cation exchange and Superdex 75 10/300 column in sequence. And the obtained protein was kept in the buffer with the same ingredients.
(§2) All of the YTHDF1 (361-559), the 5′-FAM labeled m^6A-containing mRNA (5′-FAM-[…] (m^6A) CUGUG-3′, SEQ ID NO: 14) and the candidate compounds were diluted with assay buffer (20 mM Hepes (pH 7.4), 50 mM NaCl, 0.01% (v/v) tween 20, 5% (v/v) glycerol). […] At last, the mixtures were measured by Envision Readers (PerkinElmer). […]

In a further assay the target is T2, YTHDF1 mutant W384A (Homo sapiens, UniProt Q9BYJ9, W384A).
T2 construct: GST (N, cleaved yes); made in house; host or cells: E. coli BL21 (DE3)
Briefly: FP assay with YTHDF1 mutant W384A. The class given is binding. The protocol:
as §1, §2

Assay [1] has as its system classical DCs in draining lymph node. Put plainly: Ex vivo cross-priming by DCs sorted from draining lymph node of treated mice. The class given is in vivo, mouse. Conditions: four DC subtypes from SAA treated B16-OVA bearing mice, day 12. The protocol:
For in vitro cross-presentation study, mature FLT3L-DCs were harvested on day 9 and purified by EasySep Mouse CD11 c Positive Selection Kit II, then treated with 10 μM SAA or DMSO in IMDM medium (contain 10% bovine and 100 ng/mL FLT3L) for 10 h. […] Then antigen-obtained DCs were purified and co-cultured with naïve T cells from OT-1 mice at a ratio of 1:10 for 96 h. The co-culture medium was 1640 RPMI contains 10% fetal bovine with or without 1 μg/mL OT-1 (OVA 257-264) peptide. For ex vivo DCs cross-presentation assay, four types of DCs (migration CD11b DC, migration CD103′ DC, resident CD11b DC and resident CD8^+ DC) were sorted in draining lymph node from SAA treated B16-OVA bearing mice at day 12. These DCs were co-cultured with OT-1 naïve T cells in the ratio of 1:10 for 96 hours with or without OT-1 peptide. Supernatant IFN-γ production was detected via CBA assay.
Further, four types of classical DCs (resident CD11b^+, resident CD8α^+, migratory CD11b^+ and migratory CD103^+) in draining lymph node were sorted from SAA treated B16-OVA bearing wild-type mice on day 12. These DCs were co-cultured with OT-I T cells for 72 hours. Then, IFN-γ production was assessed by IFN-γ cytometric bead array.

The target in a further assay is T3, His-YTHDF1 (361-559) (Homo sapiens, UniProt Q9BYJ9).
T3 construct: made in house; host or cells: E. coli BL21 (DE3)
T3 sequence (Q9BYJ9 with tags, fused parts or gaps): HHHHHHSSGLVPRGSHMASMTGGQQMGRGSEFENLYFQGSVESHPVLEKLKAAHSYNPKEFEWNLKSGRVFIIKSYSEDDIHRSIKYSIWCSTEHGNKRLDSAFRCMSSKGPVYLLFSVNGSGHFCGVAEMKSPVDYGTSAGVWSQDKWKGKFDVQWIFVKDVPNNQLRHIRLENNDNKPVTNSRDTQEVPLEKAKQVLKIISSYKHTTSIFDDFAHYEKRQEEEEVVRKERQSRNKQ
Put plainly: AlphaScreen-based assay, m6A-containing mRNA binding to YTHDF1. The settings on record: read-out: IC50, blocking binding between m6A and YTHDF1. The protocol:
Then 10 nM biotinylated m^6A-containing mRNA (5′-biotin-[…] (m^6A) CUGUG-3′) (SEQ ID NO: 15) was added to bind with YTHDF1 (361-559), and unbiotinylated m^6A-containing mRNA was used as the positive control. Before Alpha signal detection, streptavidin donor beads and anti-His acceptor beads were added into the white assay plate in subdued light (OptiPlate™-384, PerkinElmer) and incubated at 4° C. for 1 hour to ensure sufficient binding between biotin tag and streptavidin donor beads, as well as that between His tag and anti-His acceptor beads. Then the Alpha signal was detected on Envision Readers (PerkinElmer).
On the technique in general: Bead proximity is the source of the signal in Alpha formats.

T1 sequence (Q9BYJ9 with tags, fused parts or gaps F382A): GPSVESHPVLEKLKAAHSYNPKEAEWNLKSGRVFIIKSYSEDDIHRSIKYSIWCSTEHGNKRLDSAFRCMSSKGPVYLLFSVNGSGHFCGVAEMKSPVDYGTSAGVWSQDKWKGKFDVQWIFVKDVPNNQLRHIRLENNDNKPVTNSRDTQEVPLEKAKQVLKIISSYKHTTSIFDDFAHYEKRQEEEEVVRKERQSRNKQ
T2 sequence (Q9BYJ9 with tags, fused parts or gaps W384A): as the sequence (Q9BYJ9 with tags, fused parts or gaps F382A) above, with A24F, W26A counted along it

One may read the IC50 as the concentration that gives 50% inhibition. For `O=C(/C=C/c1ccc(O)c(O)c1/C=C/c1ccc(O)c(O)c1)O[C@H](Cc1ccc(O)c(O)c1)C(=O)O` [SAA, Salvianolic Acid A], the “inhibitory activity against mutant binding to m6A versus wildtype” value at YTHDF1 mutant F382A and at YTHDF1 mutant W384A was “significantly weaker than that against wildtype YTHDF1” each time. The “cross-priming of T cells (IFN-γ production)” value in assay [1] is given as “better cross-priming of T cells than DMSO treated group”. Moreover, on His-YTHDF1 (361-559), the 50% inhibitory concentration (IC50) was found to be 860 ± 60 nM.
